Laboratory results from US20110173709A1, “ECTOPIC, ORTHOTOPIC MODEL FOR REVASCULARIZATION AND TUMOR ASSESSMENT” (Sidney Kimmel Cancer Center, priority 2007, published 2011).

Test system: N202-H2BGFP tumor spheroids
Assay: Doxorubicin treatment of N202-H2BGFP tumor spheroids in dorsal skinfold window chamber
Assay type: in vivo, mouse
Conditions: single dose 1 or 5 mg/kg via the tail vein after re-vascularization, nu/nu nude mice

In the case of COc1cccc2c1C(=O)c1c(O)c3c(c(O)c1C2=O)C[C@@](O)(C(=O)CO)C[C@@H]3O[C@H]1C[C@H](N)[C@H](O)[C@H](C)O1 [Doxorubicin], the “effect on the growing tumor implanted on the engrafted mammary fat pad” value (orthotopic engrafted mammary fat pad, over a 2 week period, FIG. 6B) is reported as “little to no effect” and the “effect on the growing tumor implanted on the skinfold” value (tumor implanted on skinfold, FIG. 6A) is reported as “essentially tumor stasis”.
